Reference: PubChem BioAssay AID1963440 (Molecular Pharmacology Branch, DTP, NCI, 2024)
pIC50: −log10 of the molar value. Values joined by “and” are separate entries in the source; they are usually repeats but may differ in a detail not shown here. Equal entries are not always repeated. Values belong to the compound of their own block, whether it stands above or below them.

Tested on: NCI-H1417 complex spheroids, growth % test/control
Assay: Anticancer human tumor NCI-H1417 cell line growth inhibition [Asc];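 further: spheroids exposed to compounds for 7 days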;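 on viability, T/C: 100% = DMSO vehicle control wells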
Conditions: for viability, T/C: stronger effect = lower value
How it was run: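 Tumor cells were grown as multicellular spheroids with stromal HUVEC and mesenchymal stem cells and treated singly or in combination. Concentrations fell in half-log steps from the clinical Cmax, or from 10 microM where none was known.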

pIC50 (compound alone, run of 10/24/2022): < 6.00 | pIC50 (compound alone, run of 11/15/2022): < 6.00 | pIC50 (curve of compound): < 6.00
Structure (SMILES): CNC(C)C(=O)NC1CN(S(=O)(=O)c2cccc(S(=O)(=O)N3CCC4CCC(C(=O)NC(c5ccccc5)c5ccccc5)N4C(=O)C(NC(=O)C(C)NC)C3)c2)CCC2CCC(C(=O)NC(c3ccccc3)c3ccccc3)N2C1=O (stereo not drawn)
viability, T/C (compound 0.00316 µM): 95% and 113% and 107% | viability, T/C (compound 0.01 µM): 105% [middle of 14 runs] | viability, T/C (compound 0.0316 µM): 97.8% [middle of 13 runs] | viability, T/C (compound 0.316 µM): 96.8% [middle of 14 runs] | viability, T/C (compound 1 µM): 97.5% [middle of 14 runs]

pIC50 (curve of first compound, second compound 0.03 µM): < 7.00 | pIC50 (curve of first compound, second compound 0.0949 µM): < 7.00 | pIC50 (curve of first compound, second compound 0.3 µM): < 7.00 | pIC50 (curve of first compound, second compound 0.949 µM): < 7.00 | pIC50 (curve of first compound, second compound 3 µM): < 7.00
Structure (SMILES): NC1CCC(NC2CC2c2ccccc2)CC1 (stereo not drawn) + CCN1C(C(=O)NC23CCC(C(=O)O)(CC2)CC3)C(c2cccc(Cl)c2F)C2(C(=O)Nc3cc(Cl)ccc32)C12CCCCC2
viability, T/C (second compound 0.03 µM, first compound 0.000316 µM): 86% | viability, T/C (second compound 0.03 µM, first compound 0.001 µM): 73.9% | viability, T/C (second compound 0.03 µM, first compound 0.00316 µM): 74.5% | viability, T/C (second compound 0.03 µM, first compound 0.01 µM): 71.3% | viability, T/C (second compound 0.03 µM, first compound 0.0316 µM): 78.6% | viability, T/C (second compound 0.03 µM, first compound 0.1 µM): 73.1% | viability, T/C (second compound 0.0949 µM, first compound 0.000316 µM): 80.5% | viability, T/C (second compound 0.0949 µM, first compound 0.001 µM): 78.3% | viability, T/C (second compound 0.0949 µM, first compound 0.00316 µM): 63.5% | viability, T/C (second compound 0.0949 µM, first compound 0.01 µM): 69.8% | viability, T/C (second compound 0.0949 µM, first compound 0.0316 µM): 73.1% | viability, T/C (second compound 0.0949 µM, first compound 0.1 µM): 66% | viability, T/C (second compound 0.3 µM, first compound 0.000316 µM): 79.7% | viability, T/C (second compound 0.3 µM, first compound 0.001 µM): 64.8% | viability, T/C (second compound 0.3 µM, first compound 0.00316 µM): 65% | viability, T/C (second compound 0.3 µM, first compound 0.01 µM): 61% | viability, T/C (second compound 0.3 µM, first compound 0.0316 µM): 63.8% | viability, T/C (second compound 0.3 µM, first compound 0.1 µM): 62.5% | viability, T/C (second compound 0.949 µM, first compound 0.000316 µM): 78.3% | viability, T/C (second compound 0.949 µM, first compound 0.001 µM): 64.9% | viability, T/C (second compound 0.949 µM, first compound 0.00316 µM): 67.6% | viability, T/C (second compound 0.949 µM, first compound 0.01 µM): 60.7% | viability, T/C (second compound 0.949 µM, first compound 0.0316 µM): 60.2% | viability, T/C (second compound 0.949 µM, first compound 0.1 µM): 61.5% | viability, T/C (second compound 3 µM, first compound 0.000316 µM): 76.9% | viability, T/C (second compound 3 µM, first compound 0.001 µM): 65.9% | viability, T/C (second compound 3 µM, first compound 0.00316 µM): 62.4% | viability, T/C (second compound 3 µM, first compound 0.01 µM): 59.2% | viability, T/C (second compound 3 µM, first compound 0.0316 µM): 55.3% | viability, T/C (second compound 3 µM, first compound 0.1 µM): 67.5%
